The experiment has as its target T1, GST-Xa-hAAK1 (Homo sapiens, UniProt Q2M2I8).
T1 construct: GST (N); Factor Xa cleavage site (Xa) (internal); made in house
Briefly: AAK1 Kinase Assay. Type of experiment: biochemical. Conditions: bacterially expressed GST-Xa-hAAK1 3.5 nM; ATP 22 μM; fluoresceinated peptide 1.5 μM; 3 hours at room temperature; Caliper LabChip 3000. On the procedure:
The assays were performed in U-bottom 384-well plates. The final assay volume was 30 μl prepared from 15 μl additions of enzyme and substrates (fluoresceinated peptide (5-FAM)-Aha-[…]-NH2 and ATP) and test compounds in assay buffer (10 mM Tris-HCL pH 7.4, 10 mM MgCl2, 0.01% Tween-20 and 1.0 mM DTT). The reactions were initiated by the combination of bacterially expressed, GST-Xa-hAAK1 with substrates and test compounds. The reactions were incubated at room temperature for 3 hours and terminated by adding 60 μl of 35 mM EDTA buffer to each sample. The reactions were analyzed on the Caliper LabChip 3000 (Caliper, Hopkinton, Mass.) by electrophoretic separation of the fluorescent substrate and phosphorylated product. […] The final concentration of reagents in the assays are ATP, 22 μM; (5-FAM)-Aha-[…]-NH2, 1.5 μM; GST-Xa-hAAK1, 3.5 nM; and DMSO, 1.6%. […] Compounds were dissolved at 10 mM in dimethylsulfoxide (DMSO) and evaluated at eleven concentrations. IC50 values were derived by non-linear regression analysis.

T1 sequence (Q2M2I8 whole entry): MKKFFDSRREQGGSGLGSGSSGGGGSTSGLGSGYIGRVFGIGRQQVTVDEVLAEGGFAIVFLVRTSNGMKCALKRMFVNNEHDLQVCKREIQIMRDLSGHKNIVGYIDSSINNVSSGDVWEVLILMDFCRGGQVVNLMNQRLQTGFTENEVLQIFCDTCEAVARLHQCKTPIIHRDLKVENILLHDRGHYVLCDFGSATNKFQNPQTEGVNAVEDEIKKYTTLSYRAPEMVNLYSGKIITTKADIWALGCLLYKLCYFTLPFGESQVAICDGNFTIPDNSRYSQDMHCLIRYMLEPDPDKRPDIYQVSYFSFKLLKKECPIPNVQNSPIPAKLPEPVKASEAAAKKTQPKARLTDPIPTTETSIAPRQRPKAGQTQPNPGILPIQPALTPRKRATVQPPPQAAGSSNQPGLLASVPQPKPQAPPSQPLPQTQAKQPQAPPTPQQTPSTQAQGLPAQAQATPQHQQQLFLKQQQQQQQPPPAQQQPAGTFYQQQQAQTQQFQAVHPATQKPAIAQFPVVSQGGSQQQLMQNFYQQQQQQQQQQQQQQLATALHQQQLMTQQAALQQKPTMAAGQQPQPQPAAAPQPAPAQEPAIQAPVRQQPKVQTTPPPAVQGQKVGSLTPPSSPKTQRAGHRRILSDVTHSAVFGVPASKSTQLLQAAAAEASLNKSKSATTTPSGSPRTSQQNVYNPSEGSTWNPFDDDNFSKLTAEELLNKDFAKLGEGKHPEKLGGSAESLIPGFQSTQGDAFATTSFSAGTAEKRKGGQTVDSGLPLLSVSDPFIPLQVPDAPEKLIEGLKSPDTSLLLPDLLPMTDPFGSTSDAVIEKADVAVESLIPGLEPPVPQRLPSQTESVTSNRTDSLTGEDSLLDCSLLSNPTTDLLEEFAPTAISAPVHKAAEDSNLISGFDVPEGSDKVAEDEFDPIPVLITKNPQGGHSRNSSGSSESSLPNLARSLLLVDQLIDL

By IC50 is commonly meant the concentration needed to halve the response being measured. In the case of `CC(C)C[C@](C)(N)COc1ncc(-c2ccnc3ccnn23)cc1Cl` [Example 272, (S)-1-((3-chloro-5-(pyrazolo[1,5-a]pyrimidin-7-yl)pyridin-2-yl)oxy)-2,4-dimethylpentan-2-amine], the half-maximal inhibitory concentration (IC50) is 0.8 nM.
On to `Cc1nc(-c2ccnc3ccnn23)ccc1OC[C@@](C)(N)CC(C)C` [Example 488, (S)-2,4-dimethyl-1-((2-methyl-6-(pyrazolo[1,5-a]pyrimidin-7-yl)pyridin-3-yl)oxy)pentan-2-amine], for which the IC50 was found to be 4 nM.
As for `CC(C)C[C@](C)(N)COc1ccc(-c2ccnc3c2C(=O)NC3)cc1C(F)(F)F` [Example 425, (S)-4-(4-((2-amino-2,4-dimethylpentyl)oxy)-3-(trifluoromethyl)phenyl)-6,7-dihydro-5H-pyrrolo [3,4-b]pyridin-5-one], the IC50 turned out to be 1.4 nM.
For `CC(C)C[C@](C)(N)COc1ccc(-c2ccnc3cc[nH]c23)cc1F` [Example 420, (S)-1-(2-fluoro-4-(1H-pyrrolo[3,2-b]pyridin-7-yl)phenoxy)-2,4-dimethylpentan-2-amine] the value was 1.1 nM; for `Cc1nc2nccc(-c3ccc(OC[C@@](C)(N)CC(C)C)c(C#N)c3)c2nc1C` [Example 252, (S)-2-((2-amino-2,4-dimethylpentyl)oxy)-5-(2,3-dimethylpyrido[2,3-b]pyrazin-8-yl)benzonitrile], 285 nM.
As for `CC(C)C[C@](C)(N)COc1ccc(-c2cc(Cl)nn3cc(C4CC4)nc23)cc1C#N` [Example 494, (5)-2-((2-amino-2,4-dimethylpentyl)oxy)-5-(6-chloro-2-cyclopropylimidazo[1,2-b]pyridazin-8-yl)benzonitrile], the IC50 stood at 222 nM.
On to `CC(C)C[C@](C)(N)COc1ccc(-c2ccnc(NC3CCCOC3)c2)cc1C(F)(F)F` (single isomer, unassigned) [Example 476], for which the IC50 was determined as 125 nM.
For the compound `CC(C)C[C@](C)(N)COc1ccc(-c2ccnc(NC3CCCOC3)c2)cc1Cl` (mixture of isomers) [Example 338, 4-(4-(((S)-2-amino-2,4-dimethylpentyl)oxy)-3-chlorophenyl)-N-(tetrahydro-2H-pyran-3-yl)pyridin-2-amine], the IC50 stood at 35 nM.
For the compound `Cc1cc(-c2ccnc(NC3CC3)n2)ccc1OC[C@@](C)(N)CC(C)C` [Example 369, (S)-4-(4-((2-amino-2,4-dimethylpentyl)oxy)-3-methylphenyl)-N-cyclopropylpyrimidin-2-amine], the half-inhibitory concentration (IC50) was 1.7 nM.
For `CC(C)C[C@](C)(N)COc1ccc(-c2ccnc3cc[nH]c23)cc1C(F)(F)F` [Example 424, (S)-1-(4-(1H-pyrrolo[3,2-b]pyridin-7-yl)-2-(trifluoromethyl)phenoxy)-2,4-dimethylpentan-2-amine], the IC50 amounted to 1.2 nM.
As to `CC(C)C[C@](C)(N)COc1ccc(-c2ccnc3ccnn23)cc1Cl` [Example 456, (S)-1-(2-chloro-4-(pyrazolo [1,5-a]pyrimidin-7-yl)phenoxy)-2,4-dimethylpentan-2-amine], the half-inhibitory concentration (IC50) came to 1 nM.
Take `CC(C)C[C@](C)(N)COc1ccc(-c2ccnc(NC(=O)c3nccs3)c2)cc1Cl` [Example 260, (S)—N-(4-(4-((2-amino-2,4-dimethylpentyl)oxy)-3-chlorophenyl)pyridin-2-yl)thiazole-2-carboxamide]: the IC50 turned out to be 0.48 nM.
In the case of `CC(C)C[C@](C)(N)COc1ccc(-c2ccnc3ccnn23)nc1CF` [Example 276, (S)-1-((2-(fluoromethyl)-6-(pyrazolo[1,5-a]pyrimidin-7-yl)pyridin-3-yl)oxy)-2,4-dimethylpentan-2-amine], the IC50 was 0.9 nM.
For `CC(C)C[C@](C)(N)COc1ccc(-c2ccnc3[nH]ncc23)cc1F` [Example 288, (S)-1-(2-fluoro-4-(1H-pyrazolo[3,4-b]pyridin-4-yl)phenoxy)-2,4-dimethylpentan-2-amine], the IC50 worked out at 0.9 nM.
For the compound `CC(C)C[C@](C)(N)COc1ccc(-c2ccnc(NC(=O)C3CCC3)c2)cc1C(F)(F)F` [Example 390, (S)—N-(4-(4-((2-amino-2,4-dimethylpentyl)oxy)-3-(trifluoromethyl)phenyl)pyridin-2-yl)cyclobutanecarboxamide], the 50% inhibitory concentration (IC50) stood at 0.5 nM.
As to `CC(C)C[C@](C)(N)COc1ccc(-c2ccnc(NC(=O)C3CCCC3)c2)cc1C(F)(F)F` [Example 391, (S)—N-(4-(4-((2-amino-2,4-dimethylpentyl)oxy)-3-(trifluoromethyl)phenyl)pyridin-2-yl)cyclopentanecarboxamide], the IC50 was determined as 0.5 nM.
As to `Cc1csc(Nc2cc(-c3ccc(OC[C@@](C)(N)CC(C)C)c(Cl)c3)ccn2)n1` [Example 262, (S)—N-(4-(4-((2-amino-2,4-dimethylpentyl)oxy)-3-chlorophenyl)pyridin-2-yl)-4-methylthiazol-2-amine], the IC50 is 1.9 nM.
Consider `CC(C)C[C@](C)(N)COc1ccc(-c2ccnc3cc(C(F)(F)F)nn23)cc1C#N` [Example 485, (S)-2-((2-amino-2,4-dimethylpentyl)oxy)-5-(2-(trifluoromethyl)pyrazolo[1,5-a]pyrimidin-7-yl)benzonitrile], for which the IC50 was found to be 4.5 nM.
For the compound `COCc1nc2c(-c3ccc(OC[C@@](C)(N)CC(C)C)c(C)c3)ccnc2[nH]1` [Example 296, (S)-1-(4-(2-(methoxymethyl)-3H-imidazo[4,5-b]pyridin-7-yl)-2-methylphenoxy)-2,4-dimethylpentan-2-amine], the IC50 was 132 nM.
As to `CC(C)C[C@](C)(N)COc1ccc(-c2ccnc(NC(=O)c3ccc(Br)o3)c2)cc1C(F)(F)F` [Example 401, (S)—N-(4-(4-((2-amino-2,4-dimethylpentyl)oxy)-3-(trifluoromethyl)phenyl)pyridin-2-yl)-5-bromofuran-2-carboxamide], the IC50 turned out to be 0.6 nM.
On to `CC(C)C[C@](C)(N)COc1ccc(-c2ccnc3c2C(=O)N(C)C3)cc1C(F)(F)F` [Example 426, (S)-4-(4-((2-amino-2,4-dimethylpentyl)oxy)-3-(trifluoromethyl)phenyl)-6-methyl-6,7-dihydro-5H-pyrrolo [3,4-b]pyridin-5-one], for which the IC50 was 7.2 nM.
For `CC(C)C[C@](C)(N)COc1ccc(-c2ccnc(NC(=O)C3CCCO3)c2)cc1C(F)(F)F` (stereo partly drawn) [Example 398, N-(4-(4-(((S)-2-amino-2,4-dimethylpentyl)oxy)-3-(trifluoromethyl)phenyl)pyridin-2-yl)tetrahydrofuran-2-carboxamide] the value was 1 nM; for `Cc1cc(-c2ccnc3[nH]c(N)nc23)ccc1OC[C@@](C)(N)CC(C)C` [Example 259, (S)-7-(4-((2-amino-2,4-dimethylpentyl)oxy)-3-methylphenyl)-3H-imidazo[4,5-b]pyridin-2-amine], 229 nM.
For `CC(C)C[C@](C)(N)COc1ccc(-c2ncnc3c2ccn3C)cc1C(F)(F)F` [Example 366, (S)-2,4-dimethyl-1-(4-(7-methyl-7H-pyrrolo[2,3-d]pyrimidin-4-yl)-2-(trifluoromethyl)phenoxy)pentan-2-amine] the value was 60 nM.
Turning to `CC(C)C[C@](C)(N)COc1ccc(-c2cc(Cl)nn3ccnc23)cc1C#N` [Example 286, (S)-2-((2-amino-2,4-dimethylpentyl)oxy)-5-(6-chloroimidazo[1,2-b]pyridazin-8-yl)benzonitrile], the IC50 turned out to be 47 nM.
Turning to `CC(C)C[C@](C)(N)COc1ccc(-c2ccnc(NCc3ccco3)c2)cc1C(F)(F)F` [Example 411, (S)-4-(4-((2-amino-2,4-dimethylpentyl)oxy)-3-(trifluoromethyl)phenyl)-N-(furan-2-ylmethyl)pyridin-2-amine], the 50% inhibitory concentration (IC50) is 1.1 nM.
On to `Cc1cn2nccc(-c3ccc(OC[C@@](C)(N)CC(C)C)c(C#N)c3)c2n1` [Example 492, (S)-2-((2-amino-2,4-dimethylpentyl)oxy)-5-(2-methylimidazo[1,2-b]pyridazin-8-yl)benzonitrile], for which the half-inhibitory concentration (IC50) was 1.8 nM.
For `CC(C)C[C@](C)(N)COc1ccc(-c2ccnc3cc(C4CC4)nn23)cc1Cl` [Example 482, (S)-1-(2-chloro-4-(2-cyclopropylpyrazolo[1,5-a]pyrimidin-7-yl)phenoxy)-2,4-dimethylpentan-2-amine] the value was 1.4 nM; for `Cc1cn2nccc(-c3ccc(OC[C@@](C)(N)CC(C)C)c(C(F)F)n3)c2n1` [Example 453, (S)-1-((2-(difluoromethyl)-6-(2-methylimidazo[1,2-b]pyridazin-8-yl)pyridin-3-yl)oxy)-2,4-dimethylpentan-2-amine], 0.4 nM.
For the compound `CC(C)C[C@](C)(N)COc1ccc(-c2ccnc3c2C(=O)NC3)cc1C#N` [Example 415, (S)-2-((2-amino-2,4-dimethylpentyl)oxy)-5-(5-oxo-6,7-dihydro-5H-pyrrolo[3,4-b]pyridin-4-yl)benzonitrile], the IC50 came out at 3.1 nM.
Regarding `Cc1nc(-c2cnn3cc(C#N)cnc23)ccc1OC[C@@](C)(N)CC(C)C` [Example 478, (S)-3-(5-((2-amino-2,4-dimethylpentyl)oxy)-6-methylpyridin-2-yl)pyrazolo[1,5-a]pyrimidine-6-carbonitrile], the half-maximal inhibitory concentration (IC50) was found to be 11 nM.
With `CC(C)C[C@](C)(N)COc1ccc(-c2ccnc(NCc3cccnc3)c2)cc1C(F)(F)F` [Example 410, (S)-4-(4-((2-amino-2,4-dimethylpentyl)oxy)-3-(trifluoromethyl)phenyl)-N-(pyridin-3-ylmethyl)pyridin-2-amine], the IC50 amounted to 3.6 nM.

The values are drawn from patent US10246469B2, “Biaryl kinase inhibitors” (BRISTOL-MYERS SQUIBB COMPANY, priority 2015, dated 2019).
